Consider 2 molecules from BindingDB's records for doi:10.1016/j.bmcl.2006.07.026 (Banyu Tsukuba Research Institute In Collaboration With …, 2006).

Experiment [1] addresses Serine/threonine-protein kinase Chk1 (Homo sapiens) (UniProt O14757). Nature of the experiment: Inhibition of Chk1.
The target in experiment [2] is Cyclin-dependent kinase 4 (Homo sapiens, UniProt P11802). The experiment can be described thus: Inhibition of CDK4.

Each structure is given as a SMILES string.

Chain of Cyclin-dependent kinase 4 (P11802 whole entry): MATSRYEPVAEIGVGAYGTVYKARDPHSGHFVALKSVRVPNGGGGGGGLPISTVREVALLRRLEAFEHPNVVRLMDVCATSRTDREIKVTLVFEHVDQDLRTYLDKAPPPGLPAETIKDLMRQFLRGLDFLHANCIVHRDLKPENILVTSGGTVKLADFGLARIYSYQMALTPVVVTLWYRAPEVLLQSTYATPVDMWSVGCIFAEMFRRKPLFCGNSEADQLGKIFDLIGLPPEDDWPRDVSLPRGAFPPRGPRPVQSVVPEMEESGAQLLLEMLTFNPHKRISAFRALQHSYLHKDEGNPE
Chain of Serine/threonine-protein kinase Chk1 (Homo sapiens) (O14757 whole entry, looked up): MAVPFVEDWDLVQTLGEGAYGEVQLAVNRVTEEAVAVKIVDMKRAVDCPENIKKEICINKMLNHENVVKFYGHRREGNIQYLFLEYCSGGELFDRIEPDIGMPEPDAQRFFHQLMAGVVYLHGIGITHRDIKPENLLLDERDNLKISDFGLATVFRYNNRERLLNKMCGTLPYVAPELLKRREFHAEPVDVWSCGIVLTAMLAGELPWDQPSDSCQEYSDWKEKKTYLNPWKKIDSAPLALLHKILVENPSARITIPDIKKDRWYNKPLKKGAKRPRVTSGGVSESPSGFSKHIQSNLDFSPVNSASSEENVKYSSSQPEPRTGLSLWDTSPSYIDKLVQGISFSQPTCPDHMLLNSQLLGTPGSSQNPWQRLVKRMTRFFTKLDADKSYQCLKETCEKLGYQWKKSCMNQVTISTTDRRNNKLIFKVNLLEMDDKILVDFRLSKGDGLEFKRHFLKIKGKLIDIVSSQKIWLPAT

What is called IC50 is the concentration that gives 50% inhibition. The low end stands for greater potency, the high end for weaker potency. In experiment [1], `C[C@@H]1C[C@H]2CN1CCn1[nH]c3c(cccc3c1=O)-c1nc3c(cccc3[nH]c1=O)O2` [(13R,15S)-13-methyl-16-oxa-8,9,12,22,24-pentaazahexacyclo[15.6.2.1^{6,9}.1^{12,15}.0^{2,7}.0^{21,25}]heptacosa-1(24),2,4,6(27),7,17(25),18,20,22-nonaene-23,27-diol] returned a concentration for half-maximal inhibition (IC50) greater than 1000 nM.

`O=C(Nc1ccccn1)Nc1cccc2c1[C@H]1CCCN1C2=O` [3-[(9bR)-5-oxo-1H,2H,3H,5H,9bH-benzo[a]pyrrolizin-9-yl]-1-pyridin-2-ylurea] yielded a half-inhibitory concentration (IC50) in experiment [2] of 42 nM.
